Columns and labels:
Format in all cases: cell-based
ASIC1a = biological target: T1, ASIC1a (Rattus norvegicus, UniProt P55926); assay: whole-cell patch clamp, slowed desensitization ([…] at […], […] at […]), amplitude unchanged
T1 construct: gene Asic1; rASIC1a homomer expressed in CHO cells
T1 sequence (P55926 1-526): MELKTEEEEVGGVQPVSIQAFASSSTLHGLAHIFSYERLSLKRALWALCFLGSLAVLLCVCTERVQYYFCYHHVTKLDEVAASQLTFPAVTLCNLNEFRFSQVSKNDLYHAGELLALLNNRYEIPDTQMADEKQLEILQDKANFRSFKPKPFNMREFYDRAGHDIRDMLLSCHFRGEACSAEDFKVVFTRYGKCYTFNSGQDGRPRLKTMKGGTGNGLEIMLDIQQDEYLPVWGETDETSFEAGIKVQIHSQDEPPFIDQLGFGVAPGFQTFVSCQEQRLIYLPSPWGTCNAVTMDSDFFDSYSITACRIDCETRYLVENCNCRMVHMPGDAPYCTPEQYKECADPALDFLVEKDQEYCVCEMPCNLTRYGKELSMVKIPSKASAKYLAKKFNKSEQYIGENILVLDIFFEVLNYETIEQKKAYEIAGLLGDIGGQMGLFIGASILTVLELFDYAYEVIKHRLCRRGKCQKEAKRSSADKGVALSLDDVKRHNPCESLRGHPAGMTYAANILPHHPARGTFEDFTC

ASIC2a [1] = biological target: T2, ASIC2a (Rattus norvegicus, UniProt Q62962); assay: whole-cell patch clamp, potentiation of acid-evoked peak current at pH […]
T2 construct: gene Asic2; rASIC2a homomer expressed in CHO cells
T2 sequence (Q62962 1-512): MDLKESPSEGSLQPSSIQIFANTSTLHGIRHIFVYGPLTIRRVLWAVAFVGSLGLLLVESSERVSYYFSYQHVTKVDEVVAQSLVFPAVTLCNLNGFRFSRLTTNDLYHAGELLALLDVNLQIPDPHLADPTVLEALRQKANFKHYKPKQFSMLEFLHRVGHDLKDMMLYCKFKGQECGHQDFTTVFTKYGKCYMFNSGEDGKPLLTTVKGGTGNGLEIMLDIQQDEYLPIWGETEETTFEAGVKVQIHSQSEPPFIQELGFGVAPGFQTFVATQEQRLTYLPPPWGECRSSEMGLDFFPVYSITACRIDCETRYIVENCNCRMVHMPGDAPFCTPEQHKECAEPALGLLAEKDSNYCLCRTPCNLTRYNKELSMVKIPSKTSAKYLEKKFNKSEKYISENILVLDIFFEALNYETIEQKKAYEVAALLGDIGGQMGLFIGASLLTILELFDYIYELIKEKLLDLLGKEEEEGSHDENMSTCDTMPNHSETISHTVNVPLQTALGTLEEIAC

ASIC3 = biological target: T3, ASIC3 (Rattus norvegicus, UniProt O35240); assay: whole-cell patch clamp, […] inhibition of peak current at […]
T3 construct: rASIC3 expressed in CHO cells
T3 sequence (O35240 1-533): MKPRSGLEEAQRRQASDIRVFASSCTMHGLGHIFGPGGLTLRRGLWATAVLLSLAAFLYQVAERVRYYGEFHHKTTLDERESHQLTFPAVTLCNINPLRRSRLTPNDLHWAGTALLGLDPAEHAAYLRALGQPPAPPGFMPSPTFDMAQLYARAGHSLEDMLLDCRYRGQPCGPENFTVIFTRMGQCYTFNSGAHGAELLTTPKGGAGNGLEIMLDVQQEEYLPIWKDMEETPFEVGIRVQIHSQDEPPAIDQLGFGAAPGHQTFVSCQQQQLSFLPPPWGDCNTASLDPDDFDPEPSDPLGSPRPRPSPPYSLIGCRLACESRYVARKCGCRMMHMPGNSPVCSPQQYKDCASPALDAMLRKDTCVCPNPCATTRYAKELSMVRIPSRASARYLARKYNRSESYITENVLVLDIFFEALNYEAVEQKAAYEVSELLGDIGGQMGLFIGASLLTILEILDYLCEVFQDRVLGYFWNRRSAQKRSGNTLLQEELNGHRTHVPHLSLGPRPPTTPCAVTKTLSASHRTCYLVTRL

ASIC2a [2] = biological target: T2, ASIC2a; assay: whole-cell patch clamp, […] inhibition of peak current at […], pH […]; conditions: pH 5

EC50 (ASIC2a [1])	inhibition at 70 µM (ASIC3)	inhibition at 70 µM (ASIC2a [2])	Structure (SMILES)	fold slowing of desensitization (ASIC1a)
7.52 ± 0.33 µM			Nc1n(CC(=O)c2ccc(F)cc2)c2ccccc2[n+]1CCN1CCOCC1 [Ru-1355]	1.28 ± 0.15
	74 ± 8%	75 ± 12%	N=C(N)c1ccc(/N=N/Nc2ccc(C(=N)N)cc2)cc1 [diminazene]	
